Source: patent US5550131A, “2-piperazinone compounds and their use” (Takeda Chemical Industries, Ltd., priority 1993, dated 1996)

What was measured:
[1] = system: human platelet aggregation by ADP; test: Determination of platelet aggregation in vitro (by ADP), human platelet rich plasma; format: cell-based; details: human PRP, n = 3, ADP 0.6-1 μM, 37° C., read-out: Inhibition of platelet aggregation by ADP, IC50, human
Description: (§1) Method […] The sodium citrate--supplemented blood was centrifuged at 950 rpm for 10 minutes and 2,000 rpm for 10 minutes respectively at room temperature to obtain platelet rich plasma (PRP) and platelet poor plasma (PPP). PRP was diluted with PPP to adjust the number of platelets to be 500,000/μl. Platelet aggregation measured spectroscopically in accordance with Born's method (Nature 194: 927, 1962) using an aggregometer (HEMA TRACER VI Toa Iyo Denshi). The PRP (250 μl) was incubated at 37° C. for 2 minutes, to which was then added 25 μl of a test drug solution. Two minutes later, 25 μl of an agent for causing agglutination. The effect of the test drug was shown by the inhibition rate of the maximum aggregation rate of the test group against that of the control group. ADP was used in the minimum concentration (0.6-1 μM) capable of obtaining maximum aggregation. Inhibitory effect on platelet aggregation by ADP of the compounds of Working Examples

[2] = system: guinea pig platelet aggregation by ADP; test: Determination of platelet aggregation in vitro (by ADP), guinea pig platelet rich plasma; format: cell-based; details: Cavia porcellus, guinea pig PRP, n = 3, ADP 0.6-1 μM, 37° C., read-out: Inhibition of platelet aggregation by ADP, IC50, guinea pigs
Description: as §1

[3] = system: platelet aggregation caused by ADP; test: Ex vivo platelet aggregation experiment (ADP) after oral administration to guinea pigs; format: in vivo, guinea pig
Description: Method After fasting overnight, guinea pigs were orally administered with a test drug solution (2 ml/kg). Blood was collected from the animals, under anesthesia with pentobarbital, after 1, 4 and 24 hours respectively. By the method described above, PRP was prepared and the platelet aggregation caused by ADP was measured. The rate of inhibition of aggregation was determined by the aggregation rate obtained in the test groups against that obtained in the control. The test drug was administered orally as a solution in distilled water. ADP aggregation inhibiting action by the compound of working Example 1 in guinea pigs

[4] = system: activated platelets of guinea pigs; test: Binding experiment in vitro: specific binding of 125I-fibrinogen to activated platelets of guinea pigs; set-up: species or system guinea pig; details: n=3; 125I-fibrinogen 0.1 μM; ADP 5×10^-5 M; 2 hours at room temperature; read-out: IC50 value against the specific binding of 125I-fibrinogen to activated platelets of guinea pigs
Description: Method Washed platelets were prepared from sodium citrate--supplemented blood of guinea pig, which were suspended in a Hepes Tyrode solution (pH 7.5) to adjust the number of platelets to be 500,000/μl. To 70 μl of this suspension was added 10 μl of an ADP solution (final concentration: 5×10^-5 M), and the mixture was left standing for 15 minutes at room temperature. To the mixture were added a solution of the test drug and 80 μl of a ^125 I-fibrinogen solution (final concentration: 0.1 μM), which was left standing for 2 hours at room temperature. Onto a 20% sucrose buffer solution was overlaid 100 μl of the reaction mixture, which was subjected to centrifuge at 3,000 rpm to separate platelet-adhesive ^125 I-fibrinogen from non-adhesive one. The radioactivity of the platelet-adhesive ^125 I-fibrinogen was determined. From the value obtained from the test groups against specific binding of the control group (processed with the buffer solution), the adhesion inhibiting ratio was determined. Action of the compound of Working Example 1 against the specific binding of ^125 I-fibrinogen to activated platelets of guinea pigs.

| SMILES | IC50 [1] [nM] | IC50 [2] [nM] | further results |
| --- | --- | --- | --- |
| COC(=O)C[C@H]1C(=O)N(CC(=O)O)CCN1C(=O)C(Cc1ccc(O)c(O)c1)NC(=O)c1ccc(C(=N)N)cc1 (mixture of isomers) [Working Example 24] | 24 | 46 |  |
| COC(=O)C[C@H]1C(=O)N(CC(=O)O)CCN1C(=O)[C@H](Cc1ccc(O)cc1)NC(=O)c1ccc(C(=N)N)cc1.Cl [Working Example 1, (S)-4-(4-Amidinobenzoyl-L-Tyrosyl)-3-Methoxycarbonylmethyl-2-Oxopiperazine-1-Acetic Acid Hydrochloride] | 20 | 37 | ADP aggregation inhibition rate ([3]; 3 mg/kg p.o., after 1 hour, n=4): 100%; ADP aggregation inhibition rate ([3]; 3 mg/kg p.o., after 4 hour, n=4): 100%; ADP aggregation inhibition rate ([3]; 3 mg/kg p.o., after 24 hour, n=3): 100%; IC50 [4]: 2.7 nM |
| COC(=O)C[C@H]1C(=O)N(CC(=O)O)CCN1C(=O)[C@H](Cc1ccc(OC)cc1)NC(=O)c1ccc(C(=N)N)cc1 [Working Example 3, (S)-4-(4-Amidinobenzoyl-O-Methyl-L-Tyrosyl)-3-Methoxycarbonylmethyl-2-Oxopiperazine-1 -Acetic Acid] | 10 | 15 | ADP aggregation inhibition rate ([3]; 1 mg/kg p.o., after 1 hour, n=6): 95%; ADP aggregation inhibition rate ([3]; 1 mg/kg p.o., after 4 hour, n=6): 100% |
| CCOc1ccc(C[C@H](NC(=O)c2ccc(C(=N)N)cc2)C(=O)N2CCN(CC(=O)O)C(=O)[C@@H]2CC(=O)OC)cc1 [Working Example 4, (S)-4-(4-amidinobenzoyl-O-ethyl-L-tyrosyl)-3-methoxycarbonylmethyl-2-oxopiperazine-1-acetic acid] |  | 120 |  |
| CCCOc1ccc(C[C@H](NC(=O)c2ccc(C(=N)N)cc2)C(=O)N2CCN(CC(=O)O)C(=O)[C@@H]2CC(=O)OC)cc1 [Working Example 5] | 40 | 34 |  |
| C=CCOc1ccc(C[C@H](NC(=O)c2ccc(C(=N)N)cc2)C(=O)N2CCN(CC(=O)O)C(=O)[C@@H]2CC(=O)OC)cc1 [Working Example 18] | 20 | 26 |  |
| COC(=O)C[C@H]1C(=O)N(CC(=O)O)CCN1C(=O)[C@H](Cc1ccc(F)cc1)NC(=O)c1ccc(C(=N)N)cc1 [Working Example 21] | 26 | 38 |  |
| COC(=O)C[C@H]1C(=O)N(CC(=O)O)CCN1C(=O)[C@H](Cc1ccc(O)c(F)c1)NC(=O)c1ccc(C(=N)N)cc1 [Working Example 22] | 18 | 47 |  |
| COC(=O)C[C@H]1C(=O)N(CC(=O)O)CCN1C(=O)[C@H](Cc1ccc(O)cc1F)NC(=O)c1ccc(C(=N)N)cc1 [Working Example 23] | 17 | 38 |  |
| COC(=O)C[C@H]1C(=O)N(CC(=O)O)CCN1C(=O)[C@H](Cc1ccc(OC)cc1)NC(=O)c1ccc(CCN)cc1 [Working Example 31] | 12 | 18 |  |
